The text below walks through data of US20110136854A1, “NOVEL 9-AZA-BICYCLO[3.3.1]NON-3-YLOXY CHROMEN-2-ONE DERIVATIVES AND THEIR USE AS MONOAMINE NEUROTRANSMITTER RE-UPTAKE INHIBITORS” (NeuroSearch A/S, priority 2008, published 2011).

Where a name gives a salt, the structure may show the parent alone. Read-outs that look alike come from different tables or passages of the source.

What all share (format): biochemical
Test [1] concerns the target T1, reuptake of serotonine (5-HT) in synaptosomes (Rattus norvegicus, UniProt P31652).
T1 construct: serotonine (5-HT) in synaptosomes as described in WO 97/16451; from tissue
Put plainly: Inhibition of 5-HT reuptake in synaptosomes. An excerpt: (§1) Compounds of the invention may be tested for their ability to inhibit reuptake of the monoamines dopamine, noradrenaline and serotonin in synaptosomes e.g. such as described in WO 97/30997 (NeuroSearch NS) or WO 97/16451 (NeuroSearch A/S). Based on the balanced activity observed in these tests the compound of the invention is considered useful for the treatment, prevention or alleviation of a disease or a disorder or a condition of a mammal, including a human, which disease, disorder or condition is responsive to inhibition of monoamine neurotransmitter re-uptake in the central nervous system.
(§2) Compounds were tested for their ability to inhibit the reuptake of the mono-amine neurotransmitters dopamine (DA) noradrenaline (NA) and serotonine (5-HT) in synaptosomes as described in WO 97/16451 (NeuroSearch NS).
(§3) The test values are given as IC50 (the concentration (μM) of the test substance which inhibits the specific binding of ^3H-DA, ^3H-NA, or ^3H-5-HT by 50%).

The target in test [2] is T2, reuptake of dopamine (DA) in synaptosomes (Rattus norvegicus, UniProt P23977).
T2 construct: in synaptosomes as described in WO 97/16451; from tissue
T2 sequence (P23977 whole entry): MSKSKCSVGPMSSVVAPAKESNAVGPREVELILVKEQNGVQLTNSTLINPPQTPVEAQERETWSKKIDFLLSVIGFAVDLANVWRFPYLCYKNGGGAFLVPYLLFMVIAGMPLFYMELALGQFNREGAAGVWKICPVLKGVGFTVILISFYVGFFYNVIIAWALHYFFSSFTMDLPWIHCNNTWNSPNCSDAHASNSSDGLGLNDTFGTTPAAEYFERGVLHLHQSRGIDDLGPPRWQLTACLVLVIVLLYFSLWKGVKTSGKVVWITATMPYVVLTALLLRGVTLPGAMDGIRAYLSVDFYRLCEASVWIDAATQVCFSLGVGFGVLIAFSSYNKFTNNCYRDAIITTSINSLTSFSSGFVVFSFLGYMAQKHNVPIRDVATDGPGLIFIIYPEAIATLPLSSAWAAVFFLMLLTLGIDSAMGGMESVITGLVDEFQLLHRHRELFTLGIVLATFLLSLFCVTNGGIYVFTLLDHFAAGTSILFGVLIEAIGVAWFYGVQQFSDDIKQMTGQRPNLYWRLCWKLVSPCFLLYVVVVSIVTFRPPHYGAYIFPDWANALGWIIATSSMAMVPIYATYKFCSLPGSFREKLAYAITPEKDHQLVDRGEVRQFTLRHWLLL
Description: Inhibition of DA reuptake in synaptosomes. To be noted: 3H-DA, read-out: DA-uptake IC50.
Description: as §1, §2, §3

The target in test [3] is T3, reuptake of noradrenaline (NA) in synaptosomes (Rattus norvegicus, UniProt Q63380).
T3 construct: in synaptosomes as described in WO 97/16451; from tissue
T3 sequence (Q63380 1-617): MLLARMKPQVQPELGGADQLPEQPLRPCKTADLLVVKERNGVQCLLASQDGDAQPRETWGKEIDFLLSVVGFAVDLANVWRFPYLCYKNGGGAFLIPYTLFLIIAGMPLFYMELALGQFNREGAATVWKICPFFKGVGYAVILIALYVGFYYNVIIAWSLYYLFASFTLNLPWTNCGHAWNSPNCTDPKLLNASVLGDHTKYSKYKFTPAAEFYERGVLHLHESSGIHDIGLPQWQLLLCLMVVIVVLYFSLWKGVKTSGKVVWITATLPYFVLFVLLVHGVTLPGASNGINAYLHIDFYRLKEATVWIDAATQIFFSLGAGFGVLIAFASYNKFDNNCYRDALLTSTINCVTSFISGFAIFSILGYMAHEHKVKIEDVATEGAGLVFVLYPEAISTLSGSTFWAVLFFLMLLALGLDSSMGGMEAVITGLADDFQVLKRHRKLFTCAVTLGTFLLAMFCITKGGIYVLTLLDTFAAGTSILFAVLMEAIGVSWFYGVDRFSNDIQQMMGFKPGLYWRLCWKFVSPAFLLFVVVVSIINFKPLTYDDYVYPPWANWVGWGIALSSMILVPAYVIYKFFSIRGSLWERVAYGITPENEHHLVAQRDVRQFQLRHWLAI
Description: Inhibition of NA reuptake in synaptosomes.
Description: as §1, §2, §3

T1 sequence (P31652 whole entry): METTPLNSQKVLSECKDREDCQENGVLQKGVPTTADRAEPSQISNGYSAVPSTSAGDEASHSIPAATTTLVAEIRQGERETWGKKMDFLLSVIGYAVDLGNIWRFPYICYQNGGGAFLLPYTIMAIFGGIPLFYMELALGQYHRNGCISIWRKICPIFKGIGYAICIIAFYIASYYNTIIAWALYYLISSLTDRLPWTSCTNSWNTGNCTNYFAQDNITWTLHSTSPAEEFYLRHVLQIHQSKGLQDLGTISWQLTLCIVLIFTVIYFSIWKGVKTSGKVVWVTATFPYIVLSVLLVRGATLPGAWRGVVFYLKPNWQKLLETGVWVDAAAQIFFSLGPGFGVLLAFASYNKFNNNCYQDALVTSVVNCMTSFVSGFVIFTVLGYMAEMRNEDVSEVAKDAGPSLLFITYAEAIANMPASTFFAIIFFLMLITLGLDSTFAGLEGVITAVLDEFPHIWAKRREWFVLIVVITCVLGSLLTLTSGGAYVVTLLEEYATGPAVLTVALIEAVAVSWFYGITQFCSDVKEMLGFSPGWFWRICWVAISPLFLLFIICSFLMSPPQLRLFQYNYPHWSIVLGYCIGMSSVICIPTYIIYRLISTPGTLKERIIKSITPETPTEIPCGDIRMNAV

As to `O=c1ccc2ccc(O[C@@H]3C[C@H]4CCC[C@@H](C3)N4)cc2o1` [Compound A1, exo-7-(9-Aza-bicyclo[3.3.1]non-3-yloxy)-chromen-2-one hydrochloric acid salt], the IC50 in test [1] was found to be 1.3 nM; in test [2] it was 240 nM; in test [3], 76 nM.
On to `CN1[C@@H]2CCC[C@H]1C[C@H](Oc1ccc3ccc(=O)oc3c1)C2` [Compound A2, exo-7-(9-Methyl-9-aza-bicyclo[3.3.1]non-3-yloxy)-chromen-2-one hydrochloric acid salt], for which the IC50 in test [1] came out at 2.9 nM; in test [2], 150 nM; in test [3] (synaptosomes, 3H-NA, read-out: NA-uptake IC50), 270 nM.
